Measured values: patent publication US7981903B2, “2-[2-{phenylamino}-1H-pyrrolo[2,3-D]pyrimidin-4-yl)amino] benzamide derivatives as IGF-1R inhibitors for the treatment of cancer” (GlaxoSmithKline LLC, priority 2007, dated 2011)

Experiments:
Type in all cases: biochemical
human IGF1R (hIGF1R) = molecular target: T1, human IGF1R (hIGF1R) (Homo sapiens, UniProt P08069); test: TR-FRET kinase assay of purified hIGF1R; conditions: activated hIGF1R 0.5 nM, 10 μM ATP, values given as pIC50 category, read-out: IGF-1R pIC50 (converted)
T1 construct: containing amino acid residues 957-1367 of human IGF1R; made in house; host or cells: Sf9 cells (baculovirus)
T1 sequence (P08069 957-1367): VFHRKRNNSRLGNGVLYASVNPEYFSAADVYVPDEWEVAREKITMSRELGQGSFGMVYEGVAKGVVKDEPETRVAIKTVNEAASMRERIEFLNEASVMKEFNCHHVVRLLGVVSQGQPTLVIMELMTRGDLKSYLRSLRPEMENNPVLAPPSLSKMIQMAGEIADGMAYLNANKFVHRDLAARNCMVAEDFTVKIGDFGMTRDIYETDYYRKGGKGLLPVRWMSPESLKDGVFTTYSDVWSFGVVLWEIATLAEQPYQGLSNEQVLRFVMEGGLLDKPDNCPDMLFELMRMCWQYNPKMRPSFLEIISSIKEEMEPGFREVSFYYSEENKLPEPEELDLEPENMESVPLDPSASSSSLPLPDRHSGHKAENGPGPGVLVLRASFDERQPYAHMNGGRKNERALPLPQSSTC

human IR (hIR) = molecular target: T2, human IR (hIR) (Homo sapiens, UniProt P06213); test: TR-FRET kinase assay of purified hIR; conditions: activated hIR 0.5 nM, 10 μM ATP, values given as pIC50 category
T2 construct: containing amino acid residues 979-1382 of human IR; made in house; host or cells: Sf9 cells (baculovirus), same process as hIGF1R
T2 sequence (P06213 979-1382): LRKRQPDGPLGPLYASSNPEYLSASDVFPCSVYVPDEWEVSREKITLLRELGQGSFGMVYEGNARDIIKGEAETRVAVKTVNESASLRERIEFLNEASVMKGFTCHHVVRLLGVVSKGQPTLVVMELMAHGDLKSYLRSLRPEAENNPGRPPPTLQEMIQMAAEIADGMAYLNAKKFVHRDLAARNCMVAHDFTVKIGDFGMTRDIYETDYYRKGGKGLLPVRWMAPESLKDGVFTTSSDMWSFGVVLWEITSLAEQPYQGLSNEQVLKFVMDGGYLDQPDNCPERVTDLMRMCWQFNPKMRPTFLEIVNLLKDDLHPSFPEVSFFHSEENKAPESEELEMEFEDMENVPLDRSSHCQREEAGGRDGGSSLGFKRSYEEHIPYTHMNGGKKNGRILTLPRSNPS

ALK = ALK (Homo sapiens, UniProt Q9UM73); test: ALK enzyme assay (HTRF); conditions: 0.25 nM ALK, 15.0 μM ATP, values given as pIC50 category
Chain of ALK (Q9UM73 19-1620): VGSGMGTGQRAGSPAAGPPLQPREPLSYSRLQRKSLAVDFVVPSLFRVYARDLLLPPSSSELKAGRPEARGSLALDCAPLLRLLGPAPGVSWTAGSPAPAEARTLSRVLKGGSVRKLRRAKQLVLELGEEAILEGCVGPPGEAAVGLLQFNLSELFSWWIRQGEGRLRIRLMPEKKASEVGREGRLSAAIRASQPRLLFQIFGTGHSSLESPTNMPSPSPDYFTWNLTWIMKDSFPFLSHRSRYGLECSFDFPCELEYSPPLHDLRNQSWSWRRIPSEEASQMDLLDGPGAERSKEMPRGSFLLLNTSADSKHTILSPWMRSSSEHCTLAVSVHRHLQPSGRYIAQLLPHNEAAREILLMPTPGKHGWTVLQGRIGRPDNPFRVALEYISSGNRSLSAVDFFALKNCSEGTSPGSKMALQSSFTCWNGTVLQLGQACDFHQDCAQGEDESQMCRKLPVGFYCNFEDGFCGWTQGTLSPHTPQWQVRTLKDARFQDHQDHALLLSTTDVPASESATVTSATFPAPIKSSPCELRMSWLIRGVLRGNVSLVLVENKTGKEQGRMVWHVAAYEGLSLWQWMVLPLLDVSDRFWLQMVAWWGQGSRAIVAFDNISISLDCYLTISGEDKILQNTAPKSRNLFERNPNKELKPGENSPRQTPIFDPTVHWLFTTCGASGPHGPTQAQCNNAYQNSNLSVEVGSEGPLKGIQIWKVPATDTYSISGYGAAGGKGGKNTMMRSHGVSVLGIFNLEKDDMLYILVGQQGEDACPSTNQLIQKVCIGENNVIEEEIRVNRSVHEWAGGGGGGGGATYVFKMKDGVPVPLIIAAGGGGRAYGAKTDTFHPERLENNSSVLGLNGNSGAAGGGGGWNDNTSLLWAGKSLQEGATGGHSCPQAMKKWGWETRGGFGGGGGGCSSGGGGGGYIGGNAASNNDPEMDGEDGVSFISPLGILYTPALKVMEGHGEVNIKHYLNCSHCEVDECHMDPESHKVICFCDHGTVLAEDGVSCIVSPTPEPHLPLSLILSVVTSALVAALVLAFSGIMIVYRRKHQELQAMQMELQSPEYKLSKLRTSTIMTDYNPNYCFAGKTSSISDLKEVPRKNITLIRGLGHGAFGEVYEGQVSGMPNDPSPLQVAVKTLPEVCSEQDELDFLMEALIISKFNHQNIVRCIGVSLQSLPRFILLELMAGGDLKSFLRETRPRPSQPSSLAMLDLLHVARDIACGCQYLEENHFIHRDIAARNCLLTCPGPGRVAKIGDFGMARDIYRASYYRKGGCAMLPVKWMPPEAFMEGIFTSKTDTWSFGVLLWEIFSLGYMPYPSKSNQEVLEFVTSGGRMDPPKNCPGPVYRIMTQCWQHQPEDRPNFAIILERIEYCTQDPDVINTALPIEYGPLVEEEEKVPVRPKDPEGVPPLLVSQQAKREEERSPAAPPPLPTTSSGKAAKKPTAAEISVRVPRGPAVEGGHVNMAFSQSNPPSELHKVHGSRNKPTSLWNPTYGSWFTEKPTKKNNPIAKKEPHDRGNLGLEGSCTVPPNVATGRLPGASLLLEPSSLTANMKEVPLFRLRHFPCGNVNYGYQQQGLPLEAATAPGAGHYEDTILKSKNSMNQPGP
Method in brief: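 Isolated ALK phosphorylates a biotinylated tyrosine peptide, 120 min at 20° C; anti-phosphotyrosine Eu-cryptate/streptavidin-XL665 HTRF read after 60 min with EDTA-containing detection mix.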

Structure (SMILES)	IC50 (human IGF1R (hIGF1R))	IC50 (human IR (hIR))	IC50 (ALK)
CCN(C)CC(=O)N1CCCc2cc(OC)c(Nc3nc(Nc4cccc(F)c4C(=O)NC)c4cc[nH]c4n3)cc21 [Example 132, 2-[(2{-[1-(N-ethyl-N-methylglycyl)-6-(methyloxy)-1,2,3,4-tetrahydro-7-quinolinyl]amino}-1H-pyrrolo[2,3-d]pyrimidin-4-yl)amino]-6-fluoro-N-methylbenzamide]	5.01 to 200 nM	1.26 to 3.98 nM	5.01 to 200 nM
COc1cc2c(cc1Nc1nc(Nc3cccc(F)c3C(N)=O)c3cc[nH]c3n1)N(C(C)=O)CC2 [Example 134, 2-[(2-{[1-acetyl-5-(methyloxy)-2,3-dihydro-1H-indol-6-yl]amino}-1H-pyrrolo[2,3-d]pyrimidin-4-yl)amino]-6-fluorobenzamide]	5.01 to 200 nM	1.26 to 3.98 nM	1.26 to 3.98 nM
CNC(=O)c1c(F)cccc1Nc1nc(Nc2cc3c(cc2OC)CCN3C(C)=O)nc2[nH]ccc12 [Example 135, 2-[(2-{[1-acetyl-5-(methyloxy)-2,3-dihydro-1H-indol-6-yl]amino}-1H-pyrrolo[2,3-d]pyrimidin-4-yl)amino]-6-fluoro-N-methylbenzamide]	5.01 to 200 nM	5.01 to 158 nM	1.26 to 3.98 nM
CCN(CC)CC(=O)N1CCc2cc(OC)c(Nc3nc(Nc4cccc(F)c4C(=O)NC)c4cc[nH]c4n3)cc21 [Example 137, 2-[(2-{[1-(N,N-diethylglycyl)-5-(methyloxy)-2,3-dihydro-1H-indol-6-yl]amino}-1H-pyrrolo[2,3-d]pyrimidin-4-yl)amino]-6-fluoro-N-methylbenzamide]	5.01 to 200 nM	5.01 to 158 nM	5.01 to 200 nM
COc1cc2c(cc1Nc1nc(Nc3cccc(F)c3C(N)=O)c3cc[nH]c3n1)NCC2 [Example 140, 2-fluoro-6-[(2-{[5-(methyloxy)-2,3-dihydro-1H-indol-6-yl]amino}-1H-pyrrolo[2,3-d]pyrimidin-4-yl)amino]benzamide]	5.01 to 200 nM	5.01 to 158 nM	5.01 to 200 nM
COc1cc2c(cc1Nc1nc(Nc3cccc(F)c3C(N)=O)c3cc[nH]c3n1)N(C(=O)CN(C)OC)CC2 [Example 144, 2-fluoro-6-[(2-{[1-[N-methyl-N-(methyloxy)glycyl]-5-(methyloxy)-2,3-dihydro-1H-indol-6-yl]amino}-1H-pyrrolo[2,3-d]pyrimidin-4-yl)amino]benzamide]	5.01 to 200 nM	5.01 to 158 nM	5.01 to 200 nM
COc1cc2c(cc1Nc1nc(Nc3cccc(F)c3C(N)=O)c3cc[nH]c3n1)N(C(=O)Cn1ccnc1)CC2 [Example 145, 2-fluoro-6-[(2-{[1-(1H-imidazol-1-ylacetyl)-5-(methyloxy)-2,3-dihydro-1H-indol-6-yl]amino}-1H-pyrrolo[2,3-d]pyrimidin-4-yl)amino]benzamide]	5.01 to 200 nM	5.01 to 158 nM	5.01 to 200 nM
COc1cc2c(cc1Nc1nc(Nc3cccc(F)c3C(N)=O)c3cc[nH]c3n1)N(C(=O)N(C)C)CC2 [Example 146, 6-[(4-{[2-(aminocarbonyl)-3-fluorophenyl]amino}-1H-pyrrolo[2,3-d]pyrimidin-2-yl)amino]-N,N-dimethyl-5-(methyloxy)-2,3-dihydro-1H-indole-1-carboxamide]	5.01 to 200 nM	5.01 to 158 nM	5.01 to 200 nM
COc1cc2c(cc1Nc1nc(Nc3cccc(F)c3C(N)=O)c3cc[nH]c3n1)N(C(=O)[C@@H]1CCCN1C)CC2 [Example 147, 2-fluoro-6-[(2-{[5-(methyloxy)-1-(1-methyl-L-prolyl)-2,3-dihydro-1H-indol-6-yl]amino}-1H-pyrrolo[2,3-d]pyrimidin-4-yl)amino]benzamide]	5.01 to 200 nM	1.26 to 3.98 nM	5.01 to 200 nM
COCC(=O)N1CCc2cc(OC)c(Nc3nc(Nc4cccc(F)c4C(N)=O)c4cc[nH]c4n3)cc21 [Example 149, 2-fluoro-6-{[2-({5-(methyloxy)-1-[(methyloxy)acetyl]-2,3-dihydro-1H-indol-6-yl}amino)-1H-pyrrolo[2,3-d]pyrimidin-4-yl]amino}benzamide]	5.01 to 200 nM	5.01 to 158 nM	5.01 to 200 nM
CNC(=O)c1c(F)cccc1Nc1nc(Nc2cc3c(cc2OC)CCN3C(=O)COC)nc2[nH]ccc12 [Example 150, 2-fluoro-N-methyl-6-{[2-({5-(methyloxy)-1-[(methyloxy)acetyl]-2,3-dihydro-1H-indol-6-yl}amino)-1H-pyrrolo[2,3-d]pyrimidin-4-yl]amino}benzamide]	5.01 to 200 nM	5.01 to 158 nM	5.01 to 200 nM
CCCNC(=O)c1c(F)cc(F)cc1Nc1nc(Nc2cc3c(cc2OC)CCN3C(=O)CN(C)C)nc2[nH]ccc12 [Example 152, 2-[(2-{[1-(N,N-dimethylglycyl)-5-(methyloxy)-2,3-dihydro-1H-indol-6-yl]amino}-1H-pyrrolo[2,3-d]pyrimidin-4-yl)amino]-4,6-difluoro-N-propylbenzamide]	0.251 to 1 nM	1.26 to 3.98 nM	0.251 to 1 nM
COc1cc2c(cc1Nc1nc(Nc3ccc(F)c(F)c3C(=O)NC(C)C)c3cc[nH]c3n1)N(C(=O)CN(C)C)CC2 [Example 161, 6-[(2-{[1-(N,N-dimethylglycyl)-5-(methyloxy)-2,3-dihydro-1H-indol-6-yl]amino}-1H-pyrrolo[2,3-d]pyrimidin-4-yl)amino]-2,3-difluoro-N-(1-methylethyl)benzamide]	5.01 to 200 nM	5.01 to 158 nM	1.26 to 3.98 nM
CCN(C)CC(=O)N1CCc2cc(OC)c(Nc3nc(Nc4cccc(F)c4C(=O)NC)c4cc[nH]c4n3)cc21 [Example 165, 2-[(2-{[1-(N-ethyl-N-methylglycyl)-5-(methyloxy)-2,3-dihydro-1H-indol-6-yl]amino}-1H-pyrrolo[2,3-d]pyrimidin-4-yl)amino]-6-fluoro-N-methylbenzamide]	5.01 to 200 nM	5.01 to 158 nM	1.26 to 3.98 nM
CNC(=O)c1c(F)cc(F)cc1Nc1nc(Nc2cc3c(cc2OC)CCCN3C(=O)CN(C)C)nc2[nH]ccc12 [Example 179, 2-[(2-{[1-(N,N-dimethylglycyl)-6-(methyloxy)-1,2,3,4-tetrahydro-7-quinolinyl]amino}-1H-pyrrolo[2,3-d]pyrimidin-4-yl)amino]-4,6-difluoro-N-methylbenzamide]	0.251 to 1 nM	0.251 to 1 nM	0.251 to 1 nM
CCNC(=O)c1c(F)cc(F)cc1Nc1nc(Nc2cc3c(cc2OC)CCCN3C(=O)CN(C)C)nc2[nH]ccc12 [Example 180, 2-[(2-{[1-(N,N-dimethylglycyl)-6-(methyloxy)-1,2,3,4-tetrahydro-7-quinolinyl]amino}-1H-pyrrolo[2,3-d]pyrimidin-4-yl)amino]-N-ethyl-4,6-difluorobenzamide]	0.251 to 1 nM	1.26 to 3.98 nM	0.251 to 1 nM

Next, values leading:

IC50 (human IGF1R (hIGF1R))	IC50 (human IR (hIR))	IC50 (ALK)	Structure (SMILES)
0.251 to 1 nM	0.251 to 1 nM	1.26 to 3.98 nM	COc1cc2c(cc1Nc1nc(Nc3cc4ccccc4cc3C(N)=O)c3cc[nH]c3n1)N(C(=O)CN(C)C)CC2 [Example 124, 3-[(2-{[1-(N,N-dimethylglycyl)-5-(methyloxy)-2,3-dihydro-1H-indol-6-yl]amino}-1H-pyrrolo[2,3-d]pyrimidin-4-yl)amino]-2-naphthalenecarboxamide]
0.251 to 1 nM	0.251 to 1 nM	5.01 to 200 nM	CNC(=O)c1cc2ccccc2cc1Nc1nc(Nc2cc3c(cc2OC)CCN3C(=O)CN(C)C)nc2[nH]ccc12 [Example 125, 3-[(2-{[1-(N,N-dimethylglycyl)-5-(methyloxy)-2,3-dihydro-1H-indol-6-yl]amino}-1H-pyrrolo[2,3-d]pyrimidin-4-yl)amino]-N-methyl-2-naphthalenecarboxamide]
0.251 to 1 nM	0.251 to 1 nM	1.26 to 3.98 nM	COc1cc2c(cc1Nc1nc(Nc3cccc(F)c3C(N)=O)c3cc[nH]c3n1)N(C(=O)CN1CCC1)CC2 [Example 143, 2-[(2-{[1-(1-azetidinylacetyl)-5-(methyloxy)-2,3-dihydro-1H-indol-6-yl]amino}-1H-pyrrolo[2,3-d]pyrimidin-4-yl)amino]-6-fluorobenzamide]
0.251 to 1 nM	0.251 to 1 nM	0.251 to 1 nM	CCNC(=O)c1c(F)cc(F)cc1Nc1nc(Nc2cc3c(cc2OC)CCN3C(=O)CN(C)C)nc2[nH]ccc12 [Example 151, 2-[(2-{[1-(N,N-dimethylglycyl)-5-(methyloxy)-2,3-dihydro-1H-indol-6-yl]amino}-1H-pyrrolo[2,3-d]pyrimidin-4-yl)amino]-N-ethyl-4,6-difluorobenzamide]
0.251 to 1 nM	0.251 to 1 nM	1.26 to 3.98 nM	CCCN(C)CC(=O)N1CCc2cc(OC)c(Nc3nc(Nc4cccc(F)c4C(N)=O)c4cc[nH]c4n3)cc21 [Example 168, 2-fluoro-6-[(2-{[5-(methyloxy)-1-(N-methyl-N-propylglycyl)-2,3-dihydro-1H-indol-6-yl]amino}-1H-pyrrolo[2,3-d]pyrimidin-4-yl)amino]benzamide]
0.251 to 1 nM	0.251 to 1 nM	1.26 to 3.98 nM	COc1cc2c(cc1Nc1nc(Nc3cc(Cl)cc(F)c3C(N)=O)c3cc[nH]c3n1)N(C(=O)CN1CCCC1)CC2 [Example 175, 4-chloro-2-fluoro-6-[(2-{[5-(methyloxy)-1-(1-pyrrolidinylacetyl)-2,3-dihydro-1H-indol-6-yl]amino}-1H-pyrrolo[2,3-d]pyrimidin-4-yl)amino]benzamide]
0.251 to 1 nM	0.251 to 1 nM	0.251 to 1 nM	COc1cc2c(cc1Nc1nc(Nc3cc(F)cc(F)c3C(N)=O)c3cc[nH]c3n1)N(C(=O)CN(C)C)CCC2 [Example 178, 2-[(2-{[1-(N,N-dimethylglycyl)-6-(methyloxy)-1,2,3,4-tetrahydro-7-quinolinyl]amino}-1H-pyrrolo[2,3-d]pyrimidin-4-yl)amino]-4,6-difluorobenzamide]
